Source: patent US12350308B2, “Phosphorylcholine conjugates and uses thereof” (TPCERA LTD., priority 2013, dated 2025)
*1 amine or outer side, *2 acyl side, *3 side chain or, on linkers, in order; H or OH if unused. Where a SMILES comes first, the peptide text is derived from it. [ ]: non-standard residue; d: D form. X1 = C[N+](C)(C)CCOP(=O)([O-])Oc1ccc(N=Nc2cc(C[C@H](N[*:1])C(=O)[*:2])ccc2O)cc1

Key:
Assay type in all cases: in vivo
[1] = tested on: female NZBxW/F1 lupus prone mice; assay: Proteinuria onset and immune complex deposits in lupus prone mice treated with TD-PC; conditions: s.c., prophylactic from week 14
Excerpt: To examine the potential protective effect of TD-PC (SEQ ID NO: 25 conjugated to PC), female NZBxW/F1 lupus prone mice received subcutaneous injections (s.c) of the TD-PC conjugate, phosphorylcholine (PC), tuftsin derivative (SEQ ID NO: 25) or PBS (control) via a prophylactic protocol starting at week 14, before the clinical onset of lupus (n ¼ 15 per group).

[2] = tested on: splenocytes of NZBW/F1 female mice; assay: Cytokine mRNA in splenocytes of lupus mice treated with TD-PC (RT-PCR); conditions: week 30; vs PBS
Protocol: (§1) NZBW/F1 female mice having lupus were treated with TD-PC (SEQ ID NO: 25 conjugated to PC) or the corresponding control treatments. Mice were sacrificed at week 30, and their splenocytes were studied in-vitro for the expression of pro-inflammatory cytokines (IFNγ, IL-17) and anti-inflammatory (TGFβ, IL-10) cytokines using RT-PCR. […] In contrast, TD-PC increased the mRNA expression of the anti-inflammatory cytokine TGFβ in the (p<0.001) compared to the mRNA expressed by splenocytes derived from PBS-treated mice (FIG. 24A).

[3] = tested on: splenocytes of NZBW/F1 female mice; assay: Cytokine secretion in-vitro by splenocytes of lupus mice treated with TD-PC; conditions: vs PBS
Protocol: as §1
However, a prominent increase in anti-inflammatory cytokines (TGFβ, IL-10) secretion in-vitro by splenocytes derived from TD-PC treated mice is illustrated in FIG. 24B. […] IFNγ secretion upon tuftsin derivative (SEQ ID NO: 25) or PC treatments was reduced by 2.5 and 1.5 times respectively (p<0.03 and p<0.04, respectively).

CIA mice = assay: Anti-collagen type II antibodies in sera of CIA mice; conditions: day 30, sera dilution 1:200
Protocol: Titers of anti-collagen type II antibodies in mice sera at a dilution of 1:200 (OD at 405 nm) were measured at day 30 after disease induction while arthritis was fully manifested (FIG. 27). […] The mean OD level of the anti-collagen type II antibodies in the mice treated with TD-PC per os was 0.685±0.09 while the corresponding mean OD level in control mice treated with PBS per os was 1.09±0.17. Furthermore, the mean OD level of the anti-collagen type II antibodies in mice treated with TD-PC s.c was 0.615±0.08, whereas the corresponding mean OD level mice treated with PBS s.c was 1.03±0.13 (p<0.001).

[4] = tested on: splenocytes derived from CIA mice; assay: Cytokine secretion in-vitro by splenocytes of CIA mice (oral and s.c. TD-PC); conditions: splenocyte culture fluids
Protocol: Cytokines play a major role in synovial inflammation while the major ones are IL-17, TNFα and IL-1. Secretion of pro-inflammatory (TNFα, IL-1β, IL-17) and anti-inflammatory cytokines (IL-10) by splenocytes derived from CIA mice treated with TD-PC or PBS (control), in-vitro, was evaluated.
Furthermore, TD-PC increased the level of anti-inflammatory cytokine IL-10 in a significant manner compared to control mice (p<0.0001; FIG. 28D and Table 3).

[5] = tested on: CD4+CD25+FOXP3+ Treg cells; assay: Treg expansion in splenocytes of CIA mice (FACS), Example 16; conditions: vs PBS
Excerpt: The frequency of CD4+CD25+FOXP3+ Treg cells subset in isolated mice splenocytes, following treatment with TD-PC or control (PBS) is elucidated in FIGS. 29A-29B. […] Representative data of the CD4+CD25+FOXP3+ levels in splenocytes derived from TD-PC and PBS treated mice gating on CD4+ T cells are presented in FIG. 29A and the corresponding statistics is presented in FIG. 29B.

Breg cells = assay: Breg expansion in splenocytes of CIA mice (FACS), Example 17; conditions: subsets CD19+IL-10+TIM-1+ and IL-10highCD5highCD1dhigh; vs PBS
Protocol: The mean percentage of Breg cells in isolated splenocytes following treatment with TD-PC or PBS was measured within two main subsets CD19+IL-10+TIM-1+ (representative data: FIG. 30A, statistics: FIG. 30C, n=15) and IL-10^highCD5^highCD1d^high (representative data: FIG. 30B, statistics: FIG. 30D, n=15).

[6] = tested on: splenocytes derived from CIA mice; assay: Cytokine secretion in-vitro by splenocytes of mice with established CIA; conditions: splenocyte culture fluids
Protocol: Secretion, in-vitro, of pro-inflammatory and anti-inflammatory cytokines by splenocytes derived from CIA mice treated with TD-PC, PBS, TD, PC, TD+PC or untreated mice was evaluated (FIGS. 32A-32D). The following cytokines secretions were examined: pro-inflammatory IL-1β (FIG. 32A), IL-17 (FIG. 32B), IL-6 (FIG. 32C), TNF-α (FIG. 32D) and anti-inflammatory IL-10 (FIG. 32E).

[7] = tested on: IL-10+CD25+CD1d+ Breg cells; assay: Breg expansion in splenocytes of mice with established CIA (FACS); conditions: isolated splenocytes; PBS 0.4%
Protocol: The mean percentage of Breg cells in isolated splenocytes following treatment with TD-PC, PBS, TD (SEQ ID NO: 25), PC, TD+PC and None was measured within IL-10+CD25+CD1d+ subset. […] Representative data of IL-10+CD25+CD1d+ levels in splenocytes derived from TD-PC, PBS, TD (SEQ ID NO: 25), PC and TD+PC treated mice gating on IL-10+ B cells, are presented in FIG. 34A.

Structure (SMILES): C[C@@H](O)[C@H](N)C(=O)N[C@@H](CCCCN)C(=O)N1CCC[C@H]1C(=O)N[C@@H](CCCNC(=N)N)C(=O)NCC(=O)N[C@@H](Cc1ccc(O)c(N=Nc2ccc(OP(=O)([O-])OCC[N+](C)(C)C)cc2)c1)C(=O)O [TD-PC, Thr-Lys-Pro-Arg-Gly-Tyr-PC] (H-TKPRG[X1]-OH)
- immune complex (IC) deposits in the mesangium / nephritis class [1]: class-II nephritis
- mice with proteinuria above 100 mg/dl ([1]; age of 30 weeks, PBS 72%): 21%
- mRNA expression of IFNγ in splenocytes [2]: inhibited
- mRNA expression of TGFβ in splenocytes [2]: increased
- IL-17 secretion from splenocytes ([3]; in vitro): significant decline
- IL-10 secretion by splenocytes ([3]; in-vitro): remarkably increased
- TGFβ production by splenocytes ([3]; in-vitro): significantly upregulated
- reduction of splenocyte secretion of IFNγ ([3]; in-vitro): 5.2 times
- mean OD level of anti-collagen type II antibodies (CIA mice; per os, PBS 1.09±0.17): 0.685±0.09 OD at 405 nm
- mean OD level of anti-collagen type II antibodies (CIA mice; s.c, PBS 1.03±0.13): 0.615±0.08 OD at 405 nm
- IL-1β ([4]; oral): 183 pg/mL
- IL-10 ([4]; oral): 3605 pg/mL
- IL-17 ([4]; oral): 505 pg/mL
- TNFα ([4]; oral): 633 pg/mL
- IL-1β ([4]; s.c.): 198 pg/mL
- IL-10 ([4]; s.c.): 2917 pg/mL
- IL-17 ([4]; s.c.): 497 pg/mL
- TNFα ([4]; s.c.): 621 pg/mL
- CD4+CD25+FOXP3+ Treg cells in isolated splenocytes [5]: striking increase
- Breg phenotype expansion in isolated splenocytes (Breg cells): significantly stimulated
- mean IL-10 level ([6]; PBS 298): 1745 pg/mL
- mean IL-6 level ([6]; PBS 840): 480 pg/mL
- mean IL-1β level ([6]; PBS 883): 320 pg/mL
- mean TNF-α level ([6]; PBS 1073): 342 pg/mL
- mean IL-17 level ([6]; PBS 2170): 1770 pg/mL
- mean percentage of IL-10+CD25+CD1d+ Breg cells [7]: 13.73%
